Assay results published in BigSolDB 2.1.

CN1CCN(c2c(F)cc3c(=O)c(C(=O)O)cn4c3c2OCN4C)CC1
solubility (mole fraction)
Conditions	283.15 K	288.15 K	293.15 K	298.15 K	303.15 K	308.15 K	313.15 K	318.15 K	323.15 K	328.15 K
in 1,4-dioxane	–	0.000114	0.000132	0.000153	0.000188	0.00023	0.00028	0.000348	0.000427	0.000512
in THF	–	0.000432	0.000508	0.000591	0.00068	0.000777	0.000887	0.001	0.00113	0.00125
in acetone	0.000219	0.000266	0.000316	0.000367	0.000425	0.000488	0.00057	0.000678	0.000796	–
in acetonitrile	0.000122	0.000147	0.000172	0.000213	0.00025	0.000298	0.000345	0.000422	0.000509	–
in ethanol	6.66e-05	7.84e-05	9.47e-05	0.000117	0.000144	0.000175	0.000217	0.000264	0.000326	–
in ethyl acetate	0.000154	0.000172	0.000197	0.000226	0.000255	0.000288	0.000326	0.000378	0.000432	–
in isopropanol	5.13e-05	6.16e-05	7.5e-05	9.22e-05	0.000107	0.00013	0.000164	0.000204	0.000259	–
in methanol	0.000127	0.000147	0.000173	0.000204	0.000249	0.000295	0.000354	0.000435	0.000521	–
in n-butanol	8.77e-05	0.0001	0.000116	0.00014	0.000169	0.000204	0.000254	0.000316	0.000408	–
in n-propanol	8.29e-05	9.58e-05	0.000114	0.000136	0.000164	0.000202	0.000253	0.000315	0.000391	–
in tert-amyl alcohol	7.86e-05	9.12e-05	0.000107	0.000122	0.00014	0.00017	0.000202	0.00024	0.00029	–
in toluene	4.91e-05	6.13e-05	7.24e-05	8.74e-05	0.000102	0.000117	0.000135	0.000155	0.00018	–
